Data from patent US8877949B2, “Furo[3,2-g]chromene compounds and uses thereof” (Shenyang Pharmaceutical University, priority 2010, dated 2014).

Key:
[1] = tested on: MCF-7 cells or BG-1 cells; assay: Effect on the proliferation of breast cancer cells (MCF-7 or BG-1 cells in nude mice); format: in vivo; conditions: Mus musculus; n = 2
Protocol: Using standard pharmacological experimental methods easily found in reference documents, the capabilities of the inventive compounds to treat and inhibit different types of malignant tumors or over-proliferation diseases can be evaluated.
Spayed athymic nu/nu (nude) mice were used. One day before the injection of tumor cells, a release-controlled pill containing 0.36-1.7 mg of β estradiol (60- or 90-day release) or a placebo was implanted into the animal. The pill was introduced into the endo-sculpture zone subcutaneously using a 10-scaled precise rotor. Next, 1×10^7 MCF-7 cells or 1×10^7 BG-1 cells were injected into breast tissues of the mice subcutaneously. The cells were mixed with matrigel with a same volume, and the latter was a liquid preparation of basilar membrane substrate, so as to facilitate tumor construction. One day after the implantation of the tumor cells (i.e. an inhibition protocol), or after the tumor had reached a certain volume (i.e. a treatment protocol), the tested compounds could be evaluated through administration. The saline containing the compound in a 1% Tween-80 vehicle was administered intraperitoneally or orally every day. The volumes of the tumors were evaluated every 3 or 7 days.

uteri = assay: 6 weeks spayed rats, protection of bone and heart: uterine weight; format: in vivo, rat; conditions: spayed female Sprague-Dawley CD rats, 6 weeks treatment; n = 2
Protocol: One day after a Taconic Farm surgery, spayed or pseudo-spayed female Sprague-Dawley CD rats (weighted 240-275 g) were obtained. These animals were fed with food and sufficient water, 3 or 4 rats/cage, in a 12/12 (light/dark) cycle. After one day, all items of investigative treatments were started to these animals. The animals were administered 7 days/week following the instruction, continuously for 6 weeks. In each investigation, one group of rats that were not treated, comparably aged, and subjected to pseudo-surgeries was used as an untreated and estrogen-sufficient control group.
All treatments were conducted with specified concentrations in physiological saline solution containing 1% Tween 80, so that the amount of the treatment was 0.1 mL/100 g body weight. Then 176 estradiol was dissolved in corn oil (20 μg/mL), and administered subcutaneously to rats, 0.1 mL/rat. The result was measured according to the average body weight of each group, and the animals were dosed once […].
Five weeks after the beginning of the treatment and one week before the end of the treatment, the bone mineral density (BMD) of each rat was evaluated. The total densities and trabecular densities of the proximal ends of tibias in the anaesthetized rats were evaluated using XCT-960M (pQCT; Stratec Medizintechik, Pforzheim, Germany). The measuring procedure is shown as follows: 15 minutes before scanning, each rat was anaesthetized by intraperitoneal injection of 45 mg/kg ketamine, 8.5 mg/kg xylazine, and 1.5 mg/kg acepromazine.
The right hindlimb was drawn over the polycarbonate test tube with a diameter of 25 mm, and tied up on the acrylic acid scaffold, so that the anklebone was situated as a right angle and the knee joint was kept horizontally. The polycarbonate test tube was fixed on the sliding platform, so as to be orthogonal with the aperture of pQCTR. The platform was adjusted, so that the distal end of femur and the proximal end of tibia were within the scanning zone. The plane scan image was set as an image with a length of 10 mm and a linear resolution of 0.2 mm.
Soft tissues were eliminated automatically using iterative algorithm. The density (total density) of the remaining bone was shown in a unit of mg/cm^3. In a concentric spiral separator, 55% of the external surface of the bone was peeled off. The density (i.e. trabecular density) of the remaining bone was shown in a unit of mg/cm^3. One week after BMD evaluation, the rats were sacrificed by CO2 asphyxiation. Blood was collected so as to measure cholesterol. Uteri were extracted and weighted. Total cholesterol was measured by Boehringer-Mannheim Hitachi 911 clinic analyzer utilizing a cholesterol/HP kit. A statistical comparison was carried out by way of one-way ANOVA of Dunnet's test.

[2] = tested on: Ovarian Cancer Cells SKOV3; assay: Effect on the proliferation of ovarian cancer cells SKOV3 (MTT); format: cell-based; conditions: Homo sapiens, SK-OV-3, n = 3
Protocol: Cells in the logarithmic growth phase were digested with trypsin, added to a 96-well plate, in a density of 6×10^3 cells/well, and cultured in a 37° C., 5% CO2 incubator. The next day, the plated was transferred to and kept in a 4° C. incubator for 1 h after the adherence of most cells, so as to achieve synchronized growth of the cells. The supernatant was sucked out, and a RPMI 1640 medium containing 10% fetal calf serum (FCS) was added, 200 μL/well. The cells were grouped according to the design of the experiment. The injectable solution of the compound prepared with sterile physiological saline was added to the 96 wells, 200 μL/well, so that the concentrate of the medicament in each well were 1 mg/mL, 2 mg/mL and 5 mg/mL, respectively. A concentration of 0 mg/mL was used as a negative control group. After subsequent cultivation for 24, 48, or 72 h, 20 μL MTT solution (with a concentration of 5 mg/mL) was added to each well, respectively. The plate was shaken gently, returned to the incubator and incubated for another 4 h. Then the supernatant was sucked out completely, and 200 μL of dimethyl sulfoxide was added to each well. The plate was shaken for 5-10 min on a shaker. The absorption (A=580) of each well at a wavelength of 580 nm was measured using a microplate reader. The A=580 value was proportional to the number of live cells.

[3] = tested on: Osteosarcoma Cells U2OS-EGFP-4A12G; assay: Effect on the proliferation of osteosarcoma cells U2OS-EGFP-4A12G (MTT); format: cell-based; conditions: n = 3
Protocol: Cells in the logarithmic growth phase were digested with trypsin, counted with trypan blue, and prepared into a cellular suspension with a density of 1×10^4 cells/mL. The suspension was seeded in a 96-well plate, 200 μL/well, about 2×10^3 cells/well, and pre-cultured for 24 h. […] A concentration of 0 mg/mL was used as a negative control group. After subsequent cultivatation for 0 h, 12 h, 24 h or 48 h, 20 μL MTT solution (5 mg/mL) was added to each well. The cultivation was terminated after another 4 h incubation. The supernatant in each well was sucked out carefully, and 150 μL of dimethyl sulfoxide (DMSO) was added to each well. The plate was shaken for 10 min, so that formazan was dissolved thoroughly. The absorption value (A value) of each well was measured using an enzyme linked immunosorbent detector, at a selected wavelength of 490 nm. The measurement was repeated for 5 times.

Row | SMILES | IC50 [1] [µM] | percentage of weight gain of uteri (uteri) [%] | IC50 [2] [µM] | IC50 [3] [µM]
1 | O=C(c1ccc(OCC(=O)N2CCOCC2)cc1)c1oc2cc3c(cc2c1-c1ccc(O)cc1)CCCO3 [2-[4-(morpholine-2-oxo-ethoxy)benzoyl]-3-(4-hydroxyphenyl)-6,7-dihydrogen-5H-furo[3,2-g]chromene] | 46.7 | 6.2 | – | –
2 | CCN(CC)CCOc1ccc(C(=O)c2oc3cc4c(cc3c2-c2ccc(O)cc2)CCCO4)cc1 [Example 56, 2-[4-(diethylaminoethoxy)benzoyl]-3-(4-hydroxyphenyl)-6,7-dihydrogen-5H-furo[3,2-g]chromene] | 22.1 | 15.1 | 17.9 | 14.9
3 | CN(C)CCOc1ccc(C(=O)c2oc3cc4c(cc3c2-c2ccc(O)cc2)CCCO4)cc1 [Example 58, 2-[4-(dimethylaminoethoxy)benzoyl]-3-(4-hydroxyphenyl)-6,7-dihydrogen-5H-furo[3,2-g]chromene] | 4.6 | 3.2 | – | –
4 | O=C(c1ccc(OCC(=O)N2CCCCC2)cc1)c1oc2cc3c(cc2c1-c1ccc(O)cc1)CCCO3 [Example 60, 2-[4-(piperidine-2-oxo-ethoxy)benzoyl]-3-(4-hydroxyphenyl)-6,7-dihydrogen-5H-furo[3,2-g]chromene] | 11.5 | 12.4 | – | –
5 | CCN(CC)C(=O)COc1ccc(C(=O)c2oc3cc4c(cc3c2-c2ccc(O)cc2)CCCO4)cc1 [Example 62, 2-[4-(diethylamino-2-oxo-ethoxy)benzoyl]-3-(4-hydroxyphenyl)-6,7-dihydrogen-5H-furo[3,2-g]chromene] | 25.2 | 23.9 | – | –
6 | CN(C)C(=O)COc1ccc(C(=O)c2oc3cc4c(cc3c2-c2ccc(O)cc2)CCCO4)cc1 [Example 64, 2-[4-(dimethylamino-2-oxo-ethoxy)benzoyl]-3-(4-hydroxyphenyl)-6,7-dihydrogen-5H-furo[3,2-g]chromene] | 5.6 | 35.5 | – | –
